Assay results published in PubChem BioAssay (NCI).
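Results reflect a 48-hour exposure of cells in 96-well plates to compound at five concentrations. Abbreviation: GI50, concentration required for 50% inhibition of growth. At the TGI there is no net growth.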

Tests used:
Experiment in all cases: inhibition of tumour cell growth, NCI panel, 48 h
SK-MEL-28 melanoma = system: SK-MEL-28 melanoma
DU-145 prostate = system: DU-145 prostate
HS 578T breast = system: HS 578T breast
NCI-H226 lung = system: NCI-H226 lung
A498 renal = system: A498 renal
NCI-H23 lung = system: NCI-H23 lung
SK-MEL-2 melanoma = system: SK-MEL-2 melanoma
SNB-75 CNS = system: SNB-75 CNS
CAKI-1 renal = system: CAKI-1 renal
NCI-H522 lung = system: NCI-H522 lung
HL-60(TB) leukemia = system: HL-60(TB) leukemia
SF-268 CNS = system: SF-268 CNS
MOLT-4 leukemia = system: MOLT-4 leukemia
MDA-MB-435 = system: MDA-MB-435
U251 CNS = system: U251 CNS
HCC-2998 colon = system: HCC-2998 colon
HCT-15 colon = system: HCT-15 colon
RPMI-8226 leukemia = system: RPMI-8226 leukemia
SNB-19 CNS = system: SNB-19 CNS
MALME-3M melanoma = system: MALME-3M melanoma
KM12 colon = system: KM12 colon
OVCAR-5 ovarian = system: OVCAR-5 ovarian
ACHN renal = system: ACHN renal
SF-295 CNS = system: SF-295 CNS
TK-10 renal = system: TK-10 renal
COLO 205 colon = system: COLO 205 colon
SW-620 colon = system: SW-620 colon
HCT-116 colon = system: HCT-116 colon
MCF7 breast = system: MCF7 breast

Compound: C[C@H](O)C(=O)N1CCC(CCn2c(Sc3cc4c(cc3Br)OCO4)nc3c(N)ncnc32)CC1
- GI50 (SK-MEL-28 melanoma): 1.49 µM
- TGI (SK-MEL-28 melanoma): > 100 µM
- GI50 (DU-145 prostate): 0.642 µM
- TGI (DU-145 prostate): > 100 µM
- TGI (HS 578T breast): > 100 µM
- GI50 (NCI-H226 lung): 4.01 µM
- TGI (NCI-H226 lung): > 100 µM
- GI50 (A498 renal): 3.35 µM
- TGI (A498 renal): > 100 µM
- GI50 (NCI-H23 lung): 0.689 µM
- TGI (NCI-H23 lung): > 100 µM
- GI50 (SK-MEL-2 melanoma): 4.63 µM
- TGI (SK-MEL-2 melanoma): > 100 µM
- GI50 (SNB-75 CNS): 9.04 µM
- TGI (SNB-75 CNS): > 100 µM
- GI50 (CAKI-1 renal): 2.26 µM
- TGI (CAKI-1 renal): > 100 µM
- GI50 (NCI-H522 lung): 0.791 µM
- TGI (NCI-H522 lung): > 52.2 µM
- GI50 (HL-60(TB) leukemia): 0.409 µM
- TGI (HL-60(TB) leukemia): 14.5 µM
- GI50 (SF-268 CNS): 8.83 µM
- TGI (SF-268 CNS): > 100 µM
- GI50 (MOLT-4 leukemia): 0.55 µM
- TGI (MOLT-4 leukemia): 11.8 µM
- GI50 (MDA-MB-435): 0.577 µM
- TGI (MDA-MB-435): > 100 µM
- GI50 (U251 CNS): 2.14 µM
- TGI (U251 CNS): > 100 µM
- GI50 (HCC-2998 colon): 0.867 µM
- TGI (HCC-2998 colon): > 43.3 µM
- GI50 (HCT-15 colon): 1.3 µM
- TGI (HCT-15 colon): > 100 µM
- GI50 (RPMI-8226 leukemia): 4.19 µM
- TGI (RPMI-8226 leukemia): > 100 µM
- GI50 (SNB-19 CNS): 3.7 µM
- TGI (SNB-19 CNS): > 100 µM
- GI50 (MALME-3M melanoma): 0.807 µM
- TGI (MALME-3M melanoma): > 100 µM
- GI50 (KM12 colon): 0.424 µM
- TGI (KM12 colon): 9.86 µM
- GI50 (OVCAR-5 ovarian): 2.74 µM
- TGI (OVCAR-5 ovarian): > 100 µM
- GI50 (ACHN renal): 0.84 µM
- TGI (ACHN renal): > 100 µM
- GI50 (SF-295 CNS): 0.741 µM
- TGI (SF-295 CNS): > 22.8 µM
- GI50 (TK-10 renal): 1.3 µM
- TGI (TK-10 renal): > 100 µM
- GI50 (COLO 205 colon): 0.467 µM
- TGI (COLO 205 colon): > 100 µM
- GI50 (SW-620 colon): 0.49 µM
- TGI (SW-620 colon): > 100 µM
- GI50 (HCT-116 colon): 0.461 µM
- TGI (HCT-116 colon): > 100 µM
- GI50 (MCF7 breast): 0.368 µM
